Series [1] can be described thus: physchem. How it is done: From a stock solution in vehicle, either H2O or 10 mM phosphate, containing 1 mg (as weighed) compound per ml, 8-11 aliquots are withdrawn and pH-adjusted individually with HCl/NaOH, to cover the whole pH range.
For series [2], the target named is MC1 receptor (Homo sapiens, UniProt Q01726). The series can be described thus: biochemical. How it is done:
Assay (IV)—Melanocortin Receptor 1 (MC1) Binding Assay
The MC1 receptor binding assay was performed on BHK cell membranes stably expressing the MC1 receptor. The assay was performed in a total volume of 250 μl: 25 μl of ^125NDP-α-MSH (22 pM in final concentration), 25 μl of test compound/control and 200 μl of cell membrane (25 μg/ml). Test compounds were dissolved in DMSO. Radioactively labeled ligand, membranes and test compounds were diluted in buffer: 25 mM HEPES, pH 7.4, 0.1 mM CaCl2, 1 mM MgSO4, 1 mM EDTA, 0.1% HSA and 0.005% Tween™ 20. Alternatively, HSA may be substituted with ovalbumin. The samples were incubated at 30° C. for 90 min. in Costar round-bottom microtiter plates. Incubation was terminated by filtration on a Packard harvester filtermate. Rapid filtration through Packard Unifilter-96 GF/B filters pre-treated with polyetylenimine (PerkinElmer 6005277). The filters were washed with ice-cold 0.9% NaCl 8-10 times. The plates were air-dried at app. 55° C. for 30 min, and 50 μl Microscint 0 (Packard, cat. No. 6013616) was added to each well. The plates were counted in a Topcounter (1 min/well).
The data were analysed by non-linear regression analysis of binding curves, using the Windows™ program GraphPad™ Prism (GraphPad Software, USA).

≈ marks a conversion by molar mass, not a printed value. Positions of bridges follow the written chain, without caps; N, C: chain ends. Non-standard residues stand in square brackets, D forms with d. Residues, ends and D or L forms follow the SMILES beside them. Groups on a side chain read outwards from the residue. *: point of attachment. Palmitoyl(16-(5-tetrazolyl)) = O=C(CCCCCCCCCCCCCCCc1nnn[nH]1)*; Lys(CH2CO2H)2 = N[C@@H](CCCCN(CC(=O)O)CC(=O)O)C(=O)O; C18 diacid = O=C(O)CCCCCCCCCCCCCCCCC(=O)*; C17 diacid = O=C(O)CCCCCCCCCCCCCCCC(=O)*; NTA = O=C(O)CN(CC(=O)O)CC(=O)*; hCys = N[C@@H](CCS)C(=O)O; Orn = NCCC[C@H](N)C(=O)O; Dab = NCC[C@H](N)C(=O)O; Dap = NC[C@H](N)C(=O)O; AEEA = NCCOCCOCC(=O)O

As a reminder, the solubility is how much of the substance goes into solution per volume. Higher therefore signals much dissolved substance. What is called Ki is the dissociation constant of the complex between target and ligand, obtained from inhibition or displacement.

Sequence of MC1 receptor (Q01726 whole entry): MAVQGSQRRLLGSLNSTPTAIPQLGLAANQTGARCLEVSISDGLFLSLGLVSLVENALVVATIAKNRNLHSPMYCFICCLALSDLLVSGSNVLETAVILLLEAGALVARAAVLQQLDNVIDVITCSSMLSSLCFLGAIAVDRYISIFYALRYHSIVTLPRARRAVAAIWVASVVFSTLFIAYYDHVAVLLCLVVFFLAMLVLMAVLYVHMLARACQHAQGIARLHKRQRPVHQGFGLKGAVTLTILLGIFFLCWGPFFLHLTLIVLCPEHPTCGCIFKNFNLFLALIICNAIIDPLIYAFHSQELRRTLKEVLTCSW

Take `CC(=O)N[C@H]1CCCCNC(=O)C[C@@H](C(=O)N2CCC[C@H]2C(=O)N2CCC[C@H]2C(=O)N[C@@H](Cc2c[nH]cn2)C(=O)N[C@@H](CCC(=O)O)C(=O)N[C@@H](CCC(=O)O)C(=O)N[C@@H](CO)C(=O)N[C@@H](CO)C(=O)N[C@@H](CCC(=O)O)C(=O)N[C@@H](CCCCNC(=O)COCCOCCNC(=O)CCCCCCCCCCCCCCCC(=O)O)C(N)=O)NC(=O)[C@H](Cc2c[nH]c3ccccc23)NC(=O)[C@H](CCCNC(=N)N)NC(=O)[C@@H](Cc2ccccc2)NC(=O)[C@H](Cc2c[nH]cn2)NC1=O` [Example 52] (Ac-KH[dF]RWDPPHEESSEK([AEEA-C17 diacid])-NH2; lactam 1-6): the solubility in series [1] (pH 6.1, Solubility Conc.) was determined as 169 µM (≈ 399 µg/mL); in series [1] (pH 6.3, Solubility Conc.), 339 µM (≈ 800 µg/mL); in series [1] (pH 6.7, Solubility Conc.), 376 µM (≈ 887 µg/mL); in series [1] (pH 7, Solubility Conc.) it was 372 µM (≈ 878 µg/mL); in series [1] (pH 7.3, Solubility Conc.), 378 µM (≈ 892 µg/mL); in series [1] (pH 7.5, Solubility Conc.) it was 382 µM (≈ 901 µg/mL). In addition, the solubility in series [1] (pH 7.6, Solubility Conc.) is 381 µM (≈ 899 µg/mL); in series [1] (pH 8, Solubility Conc.) it was 391 µM (≈ 923 µg/mL); in series [1] (pH 8.3, Solubility Conc.), 390 µM (≈ 920 µg/mL). This compound also displayed a Ki in series [2] above 10 µM.

Consider `CC(=O)N[C@H]1CCC(=O)NCCC[C@@H](C(=O)N2CCC[C@H]2C(=O)N2CCC[C@H]2C(=O)N[C@@H](CC(=O)O)C(=O)N[C@@H](CCCCN(CC(=O)O)CC(=O)O)C(=O)N[C@@H](CCCCNC(=O)COCCOCCNC(=O)CCCCCCCCCCCCCCCCC(=O)O)C(N)=O)NC(=O)[C@H](Cc2c[nH]c3ccccc23)NC(=O)[C@H](CCCNC(=N)N)NC(=O)[C@@H](Cc2ccccc2)NC(=O)[C@H](Cc2c[nH]cn2)NC1=O` [Example 26, Ac-c[Glu-His-D-Phe-Arg-Trp-Orn]-Pro-Pro-Asp-Lys(biscarboxymethyl)-Lys({2-[2-(17-carboxyheptadecanoylamino)ethoxy]ethoxy}acetyl)-NH2] (Ac-EH[dF]RW[Orn]PPD[Lys(CH2CO2H)2]K([AEEA-C18 diacid])-NH2; lactam 1-6), for which the solubility stood at 49 µM (≈ 99.7 µg/mL) in series [1] (pH 5.5, Solubility Conc.); 325 µM (≈ 661 µg/mL) in series [1] (pH 5.8, Solubility Conc.); 474 µM (≈ 964 µg/mL) in series [1] (pH 6.1, Solubility Conc.); 478 µM (≈ 972 µg/mL) in series [1] (pH 6.5, Solubility Conc.); 461 µM (≈ 938 µg/mL) in series [1] (pH 6.8, Solubility Conc.); 476 µM (≈ 968 µg/mL) in series [1] (pH 7.1, Solubility Conc.). In addition, the solubility in series [1] (pH 7.4, Solubility Conc.) stood at 482 µM (≈ 981 µg/mL); in series [1] (pH 7.7, Solubility Conc.) it was 474 µM (≈ 964 µg/mL); in series [1] (pH 7.9, Solubility Conc.), 478 µM (≈ 972 µg/mL). The Ki in series [2] is above 10 µM.

Consider `CC(=O)N[C@H]1CCCCNC(=O)CC[C@@H](C(=O)N2CCC[C@H]2C(=O)N2CCC[C@H]2C(=O)N[C@@H](CCCNC(=N)N)C(=O)N[C@@H](CC(=O)O)C(=O)N[C@@H](CCCCN(CC(=O)O)CC(=O)O)C(=O)N[C@@H](CCCCNC(=O)COCCOCCNC(=O)CCCCCCCCCCCCCCCc2nnn[nH]2)C(N)=O)NC(=O)[C@H](Cc2c[nH]c3ccccc23)NC(=O)[C@H](CCCNC(=N)N)NC(=O)[C@@H](Cc2ccccc2)NC(=O)[C@H](Cc2c[nH]cn2)NC1=O` [Example 21, Ac-c[Lys-His-D-Phe-Arg-Trp-Glu]-Pro-Pro-Arg-Asp-Lys(biscarboxymethyl)-Lys[(2-{2-[16-(tetrazol-5-yl)hexadecanoylamino]ethoxy}ethoxy)acetyl]-NH2] (Ac-KH[dF]RWEPPRD[Lys(CH2CO2H)2]K([AEEA-Palmitoyl(16-(5-tetrazolyl))])-NH2; lactam 1-6), for which the solubility in series [1] (pH 5.3, Solubility Conc.) amounted to 38 µM (≈ 84.2 µg/mL); in series [1] (pH 6, Solubility Conc.) it was 31 µM (≈ 68.7 µg/mL); in series [1] (pH 6.3, Solubility Conc.), 36 µM (≈ 79.7 µg/mL); in series [1] (pH 6.6, Solubility Conc.), 47 µM (≈ 104 µg/mL); in series [1] (pH 7.2, Solubility Conc.), 90 µM (≈ 199 µg/mL); in series [1] (pH 7.4, Solubility Conc.) it was 175 µM (≈ 388 µg/mL). The solubility in series [1] (pH 7.5, Solubility Conc.) came to 276 µM (≈ 611 µg/mL); in series [1] (pH 7.7, Solubility Conc.), 360 µM (≈ 797 µg/mL); in series [1] (pH 7.9, Solubility Conc.), 366 µM (≈ 811 µg/mL). In series [2], this compound came in with a Ki above 10 µM.

For `CC(=O)N[C@H]1CCSSC[C@@H](C(=O)N2CCC[C@H]2C(=O)N2CCC[C@H]2C(=O)N[C@@H](CCCCN)C(=O)N[C@@H](CC(=O)O)C(=O)N[C@@H](CNC(=O)CN(CC(=O)O)CC(=O)O)C(=O)N[C@@H](CCCCNC(=O)COCCOCCNC(=O)CCCCCCCCCCCCCCCc2nnn[nH]2)C(N)=O)NC(=O)[C@H](Cc2c[nH]c3ccccc23)NC(=O)[C@H](CCCNC(=N)N)NC(=O)[C@@H](Cc2ccccc2)NC(=O)[C@H](CCC(N)=O)NC1=O` [Example 66, Ac-c[homoCys-Gln-D-Phe-Arg-Trp-Cys]-Pro-Pro-Lys-Asp-Dap(BCMA)-Lys[(2-{2-[16-(tetrazol-5-yl)hexadecanoylamino]ethoxy}ethoxy)acetyl]-NH2] (Ac-[hCys]Q[dF]RWCPPKD[Dap](NTA)K([AEEA-Palmitoyl(16-(5-tetrazolyl))])-NH2; disulfide 1-6), the solubility in series [1] (pH 4.8, Solubility Conc.) was 38 µM (≈ 82.5 µg/mL); in series [1] (pH 6.4, Solubility Conc.) it was 390 µM (≈ 847 µg/mL); in series [1] (pH 6.5, Solubility Conc.), 474 µM (≈ 1030 µg/mL); in series [1] (pH 6.7, Solubility Conc.), 447 µM (≈ 971 µg/mL); in series [1] (pH 6.9, Solubility Conc.), 455 µM (≈ 988 µg/mL); in series [1] (pH 7.2, Solubility Conc.), 461 µM (≈ 1000 µg/mL). Moreover, the solubility was 478 µM (≈ 1040 µg/mL) in series [1] (pH 7.4, Solubility Conc.); 507 µM (≈ 1100 µg/mL) in series [1] (pH 7.6, Solubility Conc.); 499 µM (≈ 1080 µg/mL) in series [1] (pH 8.1, Solubility Conc.). In series [2], this compound gave a Ki above 10 µM.

With `CC(=O)N[C@H]1CCCNC(=O)C[C@@H](C(=O)N2CCC[C@H]2C(=O)N2CCC[C@H]2C(=O)N[C@@H](Cc2c[nH]cn2)C(=O)N[C@@H](CCC(=O)O)C(=O)N[C@@H](CCCCN(CC(=O)O)CC(=O)O)C(=O)N[C@@H](CCCCNC(=O)COCCOCCNC(=O)CCCCCCCCCCCCCCCc2nnn[nH]2)C(N)=O)NC(=O)[C@H](Cc2c[nH]c3ccccc23)NC(=O)[C@H](CCCNC(=N)N)NC(=O)[C@@H](Cc2ccccc2)NC(=O)[C@H](Cc2c[nH]cn2)NC1=O` [Example 10, Ac-c[Orn-His-D-Phe-Arg-Trp-Asp]-Pro-Pro-His-Glu-Lys(biscarboxymethyl)-Lys[(2-{2-[16-(tetrazol-5-yl)hexadecanoylamino]ethoxy}ethoxy)acetyl]-NH2] (Ac-[Orn]H[dF]RWDPPHE[Lys(CH2CO2H)2]K([AEEA-Palmitoyl(16-(5-tetrazolyl))])-NH2; lactam 1-6), the solubility stood at 35 µM (≈ 76.4 µg/mL) in series [1] (pH 6, Solubility Conc.); 88 µM (≈ 192 µg/mL) in series [1] (pH 6.4, Solubility Conc.); 287 µM (≈ 626 µg/mL) in series [1] (pH 6.6, Solubility Conc.); 514 µM (≈ 1120 µg/mL) in series [1] (pH 6.7, Solubility Conc.); 517 µM (≈ 1130 µg/mL) in series [1] (pH 7, Solubility Conc.); 517 µM (≈ 1130 µg/mL) in series [1] (pH 7.3, Solubility Conc.). Further, the solubility in series [1] (pH 7.4, Solubility Conc.) is 516 µM (≈ 1130 µg/mL); in series [1] (pH 7.7, Solubility Conc.), 521 µM (≈ 1140 µg/mL); in series [1] (pH 8, Solubility Conc.), 531 µM (≈ 1160 µg/mL). The Ki in series [2] was above 10 µM.

For `CC(=O)N[C@H]1CCNC(=O)C[C@@H](C(=O)N2CCC[C@H]2C(=O)N2CCC[C@H]2C(=O)N[C@@H](Cc2c[nH]cn2)C(=O)N[C@@H](CCC(=O)O)C(=O)N[C@@H](CCCCN(CC(=O)O)CC(=O)O)C(=O)N[C@@H](CCCCNC(=O)COCCOCCNC(=O)CCCCCCCCCCCCCCCc2nnn[nH]2)C(N)=O)NC(=O)[C@H](Cc2c[nH]c3ccccc23)NC(=O)[C@H](CCCNC(=N)N)NC(=O)[C@@H](Cc2ccccc2)NC(=O)[C@H](Cc2c[nH]cn2)NC1=O` [Example 33, Ac-c[Dab-His-D-Phe-Arg-Trp-Asp]-Pro-Pro-His-Glu-Lys(biscarboxymethyl)-Lys[(2-{2-[16-(tetrazol-5-yl)hexadecanoylamino]ethoxy}ethoxy)acetyl]-NH2] (Ac-[Dab]H[dF]RWDPPHE[Lys(CH2CO2H)2]K([AEEA-Palmitoyl(16-(5-tetrazolyl))])-NH2; lactam 1-6), the solubility in series [1] (pH 6.4, Solubility Conc.) was found to be 122 µM (≈ 264 µg/mL); in series [1] (pH 6.6, Solubility Conc.) it was 468 µM (≈ 1010 µg/mL); in series [1] (pH 6.7, Solubility Conc.) it was 485 µM (≈ 1050 µg/mL); in series [1] (pH 6.9, Solubility Conc.) it was 487 µM (≈ 1060 µg/mL); in series [1] (pH 7.3, Solubility Conc.), 488 µM (≈ 1060 µg/mL); in series [1] (pH 7.5, Solubility Conc.), 503 µM (≈ 1090 µg/mL). The solubility in series [1] (pH 7.8, Solubility Conc.) came to 489 µM (≈ 1060 µg/mL); in series [1] (pH 8.1, Solubility Conc.), 511 µM (≈ 1110 µg/mL); in series [1] (pH 8.6, Solubility Conc.), 473 µM (≈ 1030 µg/mL). Besides, in series [2], the Ki is above 10 µM.

The values above are taken from US20130012432A1, “Peptides for Treatment of Obesity” (Novo Nordisk A/S, priority 2010, published 2013).
